# Results taken from patent publication US10774094B2, “Crystal forms and salt forms of 7h-pyrrolo[2,3-d]pyrimidine compounds and preparation method thereof” (Wuxi Fortune Pharmaceutical Co., Ltd, priority 2016, dated 2020).
# What was measured:
# Recombinant human JAK1 = target: T1, Recombinant human JAK1 (Homo sapiens, UniProt P23458); assay: In-vitro activity test of JAK1 kinase (LANCE Ultra); type: biochemical
# T1 construct: purchased Life technology
# Experimental: (§1) Recombinant human JAK1, JAK2, and JAK3 […] were purchased from Life technology. LANCE Ultra ULight™-JAK-1 (Tyr1023) peptide and LANCE Eu-W1024 Anti-phosphotyrosine (PT66) both were purchased from PerkinElmer. The plates were read using a multiplex enzyme reader Envision (PerkinElmer).
# (§2) The test compounds were subjected to 3-fold concentration gradient dilution to afford 11 final concentrations ranging from 10 uM to 0.17 nM; two wells were formed for each concentration; and the content of DMSO in the detection reaction was 1%.
# 2 nM of JAK1 protein kinase, 50 nM of LANCE Ultra ULight™-JAK-1 (Tyr1023) peptide, 38 uM of ATP, 50 mM of HEPES (pH 7.5), 10 mM of MgCl2, 1 mM of EGTA, 2 mM of DTT, and 0.01% of BRIJ-35 were included. The assay plate was a White Proxiplate 384-Plus plate (PerkinElmer). The reaction was performed at room temperature for 90 minutes; and the reaction system was 10 ul.
# (§3) 10 ul of the detection reagent was added to a reaction plate, wherein the final concentration of LANCE Eu-W1024 Anti-phosphotyrosine (PT66) was 2 nM, and the final concentration of EDTA was 10 mM. The reagents were incubated for 60 minutes at room temperature; and the plate was read with Envision instrument.
# The reading was converted to an inhibition rate by the following formula: […]. IC50 data were measured by 4-parameter curve fitting (Model 205 in XLFIT5, iDBS). Seen Table 9 for details.
# Recombinant human JAK2 = target: T2, Recombinant human JAK2 (Homo sapiens, UniProt O60674); assay: In-vitro activity test of JAK2 kinase (LANCE Ultra); type: biochemical
# T2 construct: purchased Life technology
# Experimental: as §1, §2
# 0.02 nM of JAK2 protein kinase, 50 nM of LANCE Ultra ULight™-JAK-1 (Tyr1023) peptide, 12 uM of ATP, 50 mM of HEPES (pH 7.5), 10 mM of MgCl2, 1 mM of EGTA, 2 mM of DTT, and 0.01% of BRIJ-35 were included. The assay plate was a White Proxiplate 384-Plus plate (PerkinElmer). The reaction was performed at room temperature for 60 minutes; and the reaction system was 10 ul.
# as §3
# The reading was converted to an inhibition rate by the following formula: (%)=(Min−Ratio)/(Max−Min)*100%. IC50 data were measured by 4-parameter curve fitting (Model 205 in XLFIT5, iDBS). […]
# [1] = Solubility tests of crystal form A in different solvents (manual stepwise dilution); type: physicochemical; conditions: for solubility: thermodynamic from solid, atmospheric temperature
# Experimental: These solubility tests were carried out by manually stepwise dilution and simultaneous observation of dissolution at atmospheric temperature.
# [2] = Stability tests of crystal form A in different solvents (40° C., 2 days, XRPD); type: physicochemical; conditions: for Results (crystal form of the solid by XRPD): 40° C., 2 days; for Appearance (2 days): stirred at 40° C. for 2 days
# Experimental: The solids in all samples were collected and dried overnight in a vacuum drying oven (25° C.).
# [3] = Technical effect statement on properties of the crystal forms (no method given); type: physicochemical
# [4] = Solid stability tests of crystal form E under high temperature, high humidity and strong light (XRPD); type: physicochemical
# Source text: The vial in which the samples were placed at high temperature and high humidity was sealed with an aluminum foil, and small holes were formed in the aluminum foil to ensure that the samples were sufficiently contacted with atmospheric air; and the sample placed at strong light radiation was sealed with a threaded cap. The samples placed under different conditions were sampled and tested by XRPD on day 5 and day 10. The test results were compared with the initial test results on day 0.
# T1 sequence (P23458 whole entry): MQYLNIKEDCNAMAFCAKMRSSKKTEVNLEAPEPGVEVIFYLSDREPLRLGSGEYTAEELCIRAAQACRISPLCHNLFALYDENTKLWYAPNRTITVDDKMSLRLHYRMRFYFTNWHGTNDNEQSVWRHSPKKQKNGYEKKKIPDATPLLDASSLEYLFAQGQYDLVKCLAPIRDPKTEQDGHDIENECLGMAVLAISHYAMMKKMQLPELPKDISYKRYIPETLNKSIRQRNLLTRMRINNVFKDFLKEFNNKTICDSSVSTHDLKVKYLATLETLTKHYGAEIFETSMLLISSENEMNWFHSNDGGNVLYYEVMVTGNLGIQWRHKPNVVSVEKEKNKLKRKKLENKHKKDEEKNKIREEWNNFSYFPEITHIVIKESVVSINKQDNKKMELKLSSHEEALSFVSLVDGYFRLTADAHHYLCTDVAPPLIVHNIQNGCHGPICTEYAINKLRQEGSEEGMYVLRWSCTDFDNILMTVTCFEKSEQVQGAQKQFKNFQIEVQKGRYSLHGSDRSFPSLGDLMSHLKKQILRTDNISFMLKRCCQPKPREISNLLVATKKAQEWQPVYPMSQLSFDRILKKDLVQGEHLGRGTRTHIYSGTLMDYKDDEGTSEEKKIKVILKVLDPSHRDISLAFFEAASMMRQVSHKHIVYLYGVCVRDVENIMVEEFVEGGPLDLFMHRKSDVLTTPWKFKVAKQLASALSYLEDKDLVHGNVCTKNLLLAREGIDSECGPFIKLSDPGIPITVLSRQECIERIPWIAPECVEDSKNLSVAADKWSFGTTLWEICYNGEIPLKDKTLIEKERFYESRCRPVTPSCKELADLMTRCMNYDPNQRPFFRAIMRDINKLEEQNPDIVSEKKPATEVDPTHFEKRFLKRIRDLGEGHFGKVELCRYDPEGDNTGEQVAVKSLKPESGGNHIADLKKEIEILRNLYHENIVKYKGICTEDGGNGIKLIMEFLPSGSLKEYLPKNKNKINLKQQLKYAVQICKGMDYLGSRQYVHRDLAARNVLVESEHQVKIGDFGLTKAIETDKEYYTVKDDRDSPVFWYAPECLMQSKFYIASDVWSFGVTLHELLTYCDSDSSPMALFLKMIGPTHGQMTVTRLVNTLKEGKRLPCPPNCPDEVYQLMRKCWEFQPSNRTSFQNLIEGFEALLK
# T2 sequence (O60674 whole entry): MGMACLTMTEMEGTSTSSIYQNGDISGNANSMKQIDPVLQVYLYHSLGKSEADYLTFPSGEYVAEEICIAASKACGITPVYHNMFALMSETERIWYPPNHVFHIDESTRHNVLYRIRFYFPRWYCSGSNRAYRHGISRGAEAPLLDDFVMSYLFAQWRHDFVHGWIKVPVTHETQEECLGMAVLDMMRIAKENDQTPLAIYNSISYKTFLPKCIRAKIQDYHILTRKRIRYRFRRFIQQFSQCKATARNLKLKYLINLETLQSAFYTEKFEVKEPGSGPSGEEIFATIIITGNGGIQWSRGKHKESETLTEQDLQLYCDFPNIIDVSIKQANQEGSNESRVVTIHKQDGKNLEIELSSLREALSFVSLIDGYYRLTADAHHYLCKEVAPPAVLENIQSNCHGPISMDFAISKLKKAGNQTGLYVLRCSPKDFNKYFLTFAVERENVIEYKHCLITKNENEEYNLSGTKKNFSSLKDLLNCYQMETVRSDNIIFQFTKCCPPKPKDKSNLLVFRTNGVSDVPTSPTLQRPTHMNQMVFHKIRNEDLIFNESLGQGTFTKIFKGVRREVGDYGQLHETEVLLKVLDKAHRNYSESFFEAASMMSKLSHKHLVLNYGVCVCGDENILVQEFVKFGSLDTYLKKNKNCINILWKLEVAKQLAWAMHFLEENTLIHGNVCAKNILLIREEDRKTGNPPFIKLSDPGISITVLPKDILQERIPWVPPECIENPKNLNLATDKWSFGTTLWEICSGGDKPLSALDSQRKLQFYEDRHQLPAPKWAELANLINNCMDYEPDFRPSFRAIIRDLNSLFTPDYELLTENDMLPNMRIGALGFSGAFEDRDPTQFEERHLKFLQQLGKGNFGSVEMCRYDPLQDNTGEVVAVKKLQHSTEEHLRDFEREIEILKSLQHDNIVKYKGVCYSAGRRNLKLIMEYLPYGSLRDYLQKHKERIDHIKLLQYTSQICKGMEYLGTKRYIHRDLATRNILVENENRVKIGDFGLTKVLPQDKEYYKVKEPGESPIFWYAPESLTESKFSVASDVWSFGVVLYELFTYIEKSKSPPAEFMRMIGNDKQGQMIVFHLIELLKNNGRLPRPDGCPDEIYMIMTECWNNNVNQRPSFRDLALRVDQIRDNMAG
compound,measurement,setting,value
"CN(c1ncnc2[nH]ccc12)[C@@H]1CCn2cc(C#N)nc2C1 (single isomer, unassigned) [Compound 1, 7-[methyl-[7-hydropyrrolo[2,3-d]pyrimidin-4-yl]amino]-5,6,7,8-tetrahydroimidazo[1,2-a]pyridin-2-nitrile]",inhibitory activity against JAK1 (in words),Recombinant human JAK1,strong inhibitory activity
same,"selective inhibition (JAK1 versus JAK2, in words)",Recombinant human JAK1,better selective inhibition for JAK
same,IC50,"Recombinant human JAK1; 38 uM ATP, 90 minutes, room temperature",≤ 10 nM
same,inhibitory activity against JAK2 (in words),Recombinant human JAK2,relatively weak inhibitory activity
same,IC50,"Recombinant human JAK2; 12 uM ATP, 60 minutes, room temperature",10 to 100 nM
CN(c1ncnc2[nH]ccc12)[C@@H]1CCn2cc(C#N)nc2C1 [Crystal Form A of Compound 1],Solubility conclusion,"[1]; 1,4-dioxane",Slightly soluble/very
same,Solubility conclusion,[1]; 2-methyltetrahydrofuran,Slightly soluble/very
same,Solubility conclusion,[1]; Acetone,Slightly soluble/very
same,Solubility conclusion,[1]; Acetone-water (1:2),Slightly soluble/very
same,Solubility conclusion,[1]; Acetonitrile,Slightly soluble/very
same,Solubility conclusion,[1]; Acetonitrile-water (1:1),Slightly soluble/very
same,Solubility conclusion,[1]; Cyclohexane,Slightly soluble/very
same,Solubility conclusion,[1]; Ethanol,Slightly soluble/very
same,Solubility conclusion,[1]; Ethanol-water (1:1),Slightly soluble/very
same,Solubility conclusion,[1]; Ethanol-water (3:1),Slightly soluble/very
same,Solubility conclusion,[1]; Ethyl acetate,Slightly soluble/very
same,Solubility conclusion,[1]; Heptane,Slightly soluble/very
same,Solubility conclusion,[1]; Isopropanol,Slightly soluble/very
same,Solubility conclusion,[1]; Isopropyl acetate,Slightly soluble/very
same,Solubility conclusion,[1]; Isopropyl alcohol-water (1:1),Slightly soluble/very
same,Solubility conclusion,[1]; Methanol,Slightly soluble/very
same,Solubility conclusion,[1]; Methanol-water (1:1),Slightly soluble/very
same,Solubility conclusion,[1]; Methanol-water (3:1),Slightly soluble/very
same,Solubility conclusion,[1]; Methyl ethyl ketone,Slightly soluble/very
same,Solubility conclusion,[1]; Methyl isobutyl ketone,Slightly soluble/very
same,Solubility conclusion,[1]; Methyl tert-butyl ether,Slightly soluble/very
same,Solubility conclusion,[1]; N-butanol,Slightly soluble/very
same,Solubility conclusion,[1]; Tetrahydrofuran,Slightly soluble/very
same,Solubility conclusion,[1]; Toluene,Slightly soluble/very
same,Solubility conclusion,[1]; Water,Slightly soluble/very
same,solubility,"[1]; aqueous with cosolvent or surfactant or cyclodextrin, Acetone-water (1:2)",< 2000 µg/mL
same,solubility,"[1]; aqueous with cosolvent or surfactant or cyclodextrin, Acetonitrile-water (1:1)",< 2000 µg/mL
same,solubility,"[1]; aqueous with cosolvent or surfactant or cyclodextrin, Ethanol-water (1:1)",< 2000 µg/mL
same,solubility,"[1]; aqueous with cosolvent or surfactant or cyclodextrin, Ethanol-water (3:1)",< 2000 µg/mL
same,solubility,"[1]; aqueous with cosolvent or surfactant or cyclodextrin, Isopropyl alcohol-water (1:1)",< 2000 µg/mL
same,solubility,"[1]; aqueous with cosolvent or surfactant or cyclodextrin, Methanol-water (1:1)",< 2000 µg/mL
same,solubility,"[1]; aqueous with cosolvent or surfactant or cyclodextrin, Methanol-water (3:1)",< 2000 µg/mL
same,solubility,"[1]; organic solvent or mixture, 1,4-dioxane",< 2000 µg/mL
same,solubility,"[1]; organic solvent or mixture, 2-methyltetrahydrofuran",< 2000 µg/mL
same,solubility,"[1]; organic solvent or mixture, Acetone",< 2000 µg/mL
same,solubility,"[1]; organic solvent or mixture, Acetonitrile",< 2000 µg/mL
same,solubility,"[1]; organic solvent or mixture, Cyclohexane",< 2000 µg/mL
same,solubility,"[1]; organic solvent or mixture, Ethanol",< 2000 µg/mL
same,solubility,"[1]; organic solvent or mixture, Ethyl acetate",< 2000 µg/mL
same,solubility,"[1]; organic solvent or mixture, Heptane",< 2000 µg/mL
same,solubility,"[1]; organic solvent or mixture, Isopropanol",< 2000 µg/mL
same,solubility,"[1]; organic solvent or mixture, Isopropyl acetate",< 2000 µg/mL
same,solubility,"[1]; organic solvent or mixture, Methanol",< 2000 µg/mL
same,solubility,"[1]; organic solvent or mixture, Methyl ethyl ketone",< 2000 µg/mL
same,solubility,"[1]; organic solvent or mixture, Methyl isobutyl ketone",< 2000 µg/mL
same,solubility,"[1]; organic solvent or mixture, Methyl tert-butyl ether",< 2000 µg/mL
same,solubility,"[1]; organic solvent or mixture, N-butanol",< 2000 µg/mL
same,solubility,"[1]; organic solvent or mixture, Tetrahydrofuran",< 2000 µg/mL
same,solubility,"[1]; organic solvent or mixture, Toluene",< 2000 µg/mL
same,solubility,[1]; Water,< 2000 µg/mL
same,Results (crystal form of the solid by XRPD),[2]; Acetone-water (1:2),Crystal form A
same,Appearance (2 days),[2]; Acetone-water (1:2),Suspension
same,Results (crystal form of the solid by XRPD),[2]; Acetone,Crystal form A
same,Appearance (2 days),[2]; Acetone,Suspension
same,Results (crystal form of the solid by XRPD),[2]; Ethanol-water (3:1),Crystal form A
same,Appearance (2 days),[2]; Ethanol-water (3:1),Suspension
same,Results (crystal form of the solid by XRPD),[2]; Ethanol,Crystal form A
same,Appearance (2 days),[2]; Ethanol,Suspension
same,Results (crystal form of the solid by XRPD),[2]; Ethyl acetate,Crystal form A
same,Appearance (2 days),[2]; Ethyl acetate,Suspension
same,Results (crystal form of the solid by XRPD),[2]; Isopropanol,Crystal form A
same,Appearance (2 days),[2]; Isopropanol,Suspension
same,Results (crystal form of the solid by XRPD),[2]; Isopropyl alcohol-water (1:1),Crystal form A
same,Appearance (2 days),[2]; Isopropyl alcohol-water (1:1),Suspension
same,Results (crystal form of the solid by XRPD),[2]; Methanol-water (3:1),Crystal form A
same,Appearance (2 days),[2]; Methanol-water (3:1),Suspension
same,Results (crystal form of the solid by XRPD),[2]; Methanol,Crystal form A
same,Appearance (2 days),[2]; Methanol,Suspension
same,Results (crystal form of the solid by XRPD),[2]; Tetrahydrofuran,Crystal form A
same,Appearance (2 days),[2]; Tetrahydrofuran,Suspension
same,hygroscopicity (in words),[3],low hygroscopicity
same,stability (in words),[3],stable properties
same,water solubility (in words),[3],excellent water solubility
CN(c1ncnc2[nH]ccc12)[C@@H]1CCn2cc(C#N)nc2C1.Cc1ccc(S(=O)(=O)O)cc1 [Crystal Form E of Compound 2],XRPD,"[4]; High humidity (room temperature/relative humidity 92.5%, open), day 5",Crystal form E
same,Appearance,"[4]; High humidity (room temperature/relative humidity 92.5%, open), day 5 and day 10",White powder
same,XRPD,"[4]; High humidity (room temperature/relative humidity 92.5%, open), day 10",Crystal form E
same,XRPD,"[4]; High temperature (60° C., open), day 5",Crystal form E
same,Appearance,"[4]; High temperature (60° C., open), day 5 and day 10",White powder
same,XRPD,"[4]; High temperature (60° C., open), day 10",Crystal form E
same,XRPD,"[4]; Strong light radiation (5000 lx, close), day 5",Crystal form E
same,Appearance,"[4]; Strong light radiation (5000 lx, close), day 5 and day 10",White powder
same,XRPD,"[4]; Strong light radiation (5000 lx, close), day 10",Crystal form E
same,Appearance,[4]; day 0 (initial),White powder
same,XRPD,[4]; day 0 (initial),Crystal form E
same,hygroscopicity (in words),[3],low hygroscopicity
same,stability (in words),[3],stable properties
same,water solubility (in words),[3],excellent water solubility
